Values joined by “and” are separate entries in the source; they are usually repeats but may differ in a detail not shown here. Equal values may be shown once. Read-outs that look alike come from different tables or passages of the source.

The test system of data set [1] is cell-free vesicular stomatitis virus (VSV). As to conditions: cited from earlier work.
Data set [2] has the same test system. It counts as cell-based.
In a further data set the test system is bacteriophage M13. It is filed as cell-based.
The test system of data set [3] is platelets. Briefly: Platelet aggregation in response to collagen after treatment of platelet concentrate. It counts as cell-based. The settings on record: for agg response: Platelet Conc., 50 μg/ml AMT + 57 J/cm^2 UVA; for Aggregation Response % Control / Agqregation Response % control: 25 μg/ml AMT.
Data set [4] relates to red blood cell concentrate. The experiment in a line: Red cell hemolysis after X-irradiation of red blood cell concentrate. The settings on record: brominated hematoporphyrin derivative, 1 mm rutin.
The subject of data set [5] is platelets. The experiment in a line: Survival of infused radiolabeled UVB-irradiated platelets. It is filed as in vivo, dogs. As to conditions: dog PCs, 36 mJ/cm^2 UVB in presence of 2 mM rutin, 51chromium label.
The subject of another data set is cell-associated VSV. It counts as cell-based, vesicular stomatitis virus.
For data set [6], the system named is encephalomyocarditis virus (EMC). It counts as cell-based.
The subject of a further data set is RBCCs. Briefly: Extracellular (plasma) potassium of stored RBCCs.
Another data set relates to lymphocytes. The experiment in a line: Lymphocyte inactivation, 3H thymidine uptake after mitogen stimulation. It is filed as cell-based. The settings on record: 15 Gy γ-irradiation.
Data set [7] deals with platelets. The experiment in a line: Platelet aggregation response to arachidonic acid and ADP after γ-irradiation of PCs. It is filed as cell-based. As to conditions: 2 mM rutin.
Setting [8] is: 25 μg/ml AMT and 90 minutes of UVA, no flavonoid.
Where [9] appears, read: 25 μg/ml AMT and 90 minutes of UVA in presence of flavonoid, overnight storage.
Setting [10] is: 50 μg/ml AMT, 90 minute UVA, air, +0.5 mM Rutin, experiments 1-5.
Where [11] appears, read: flavonoid present, no AMT/UVA treatment, overnight storage.

In the case of `Cc1oc2c(C)c3oc(=O)cc(C)c3cc2c1CN` [AMT, 4′-aminomethyl-4,5′,8-trimethylpsoralen], the “inactivation of cell-free VSV” value in data set [1] is on record as ≥ 6.0 log10. In addition, in data set [2], the “LOG10 VIRUS KILL VSV” value is recorded as “≧6 LOG10” and the “inactivation of cell-free VSV” value is reported as “completely inactivated”. Further, in the data set on bacteriophage M13, the “LOG10 VIRUS KILL M13” value was 3 LOG10 and 5 LOG10; the “inactivation of bacteriophage M13” value is given as “at least 4 log 10”. Also, in the data set with platelets [3] (setting [8]), the “% Untreated Control - Extent of Aggregation Response to Collagen, treated” value was 44 % Untreated Control and the “% Untreated Control - Rate of Aggregation Response to Collagen, treated” value was 24 % Untreated Control. Besides, the agg response in the data set on platelets [3] (quencher none) is given as ≤ 30%. Moreover, the “Aggregation Response % Control” value in the data set on platelets [3] (platelet conc., 7.5 mW/cm^2 UVA 60 min, no quencher) was found to be 52 % Control. For the same compound, the “Aggregation Response % Control” value in the data set on platelets [3] (platelet conc., 7.5 mW/cm^2 UVA 90 min, no quencher) worked out at 35 % Control. Also, in the data set with platelets [3] (platelet conc., 11 mW/cm^2 UVA 30 min, no quencher), the “Agqregation Response % control” value turned out to be 75 % control. Further, the “Agqregation Response % control” value in the data set on platelets [3] (platelet conc., 11 mW/cm^2 UVA 60 min, no quencher) is 52 % control. Besides, the “aggregation response to collagen” value in the data set on platelets [3] (platelet conc., 100 μg/ml AMT, 90 min UVA, no quencher) is recorded as “no response at all”.
Regarding `C[C@@H]1O[C@@H](OC[C@H]2O[C@@H](Oc3c(-c4ccc(O)c(O)c4)oc4cc(O)cc(O)c4c3=O)[C@H](O)[C@@H](O)[C@@H]2O)[C@H](O)[C@H](O)[C@H]1O` [rutin], the red cell hemolysis result in [4] was “less than 2%”. For the same compound, in data set [2], the “LOG10 VIRUS KILL VSV” value was “≧6 LOG10”, the “Virus Kill (log10) VSV” value is “≧5.4 log10” and the “kill of VSV” value is “exceeded 5 log10”. The “LOG10 VIRUS KILL M13” value in the data set on bacteriophage M13 was 6 LOG10 and 3 LOG10 and 5 LOG10. The “Survival of UV-exposed donor platelets” value in the data set with platelets [5] is listed as 5 days. In the data set on platelets [3] (setting [9]), the “% Untreated Control - Extent of Aggregation Response to Collagen, treated” value is on record as 100/100 % Untreated Control and the “% Untreated Control - Rate of Aggregation Response to Collagen, treated” value is 100/100 % Untreated Control. In the data set on platelets [3] (setting [10]), the “Platelet aggregation, first value of pair (extent as in Table III)” value is 95 and 96/96 and 100 and 100/100 and 98; the “Platelet aggregation, second value of pair (rate as in Table III)” value is 90 and 96/96 and 84 and 100/100 and 95. The agg response in the data set with platelets [3] (0.35 mM rutin) is 85%. In the data set with platelets [3] (setting [11]), the “% Untreated Control - Extent of Aggregation Response to Collagen, untreated” value is 100/100 % Untreated Control and the “% Untreated Control - Rate of Aggregation Response to Collagen, untreated” value was 100/100 % Untreated Control. The aggregation function entry in the data set on platelets [3] (platelet conc., 25, 50 or 100 μg/ml AMT, 90 min UVA, 0.7 mM rutin) was “more than 80 % of the control”. Further, the “inactivation of cell-associated VSV” value in the data set on cell-associated VSV is ~6 log10. In addition, the “Virus Kill (log10) EMC” value in [6] is given as “≧7.7 log10”. For the same compound, in the data set with RBCCs (RBCC, AlPcS4 treatment then γ-irradiation 25 Gy, rutin present during γ-irradiation and storage, 2 days), the “plasma K+” value came to 25 mM. The “plasma K+” value in the data set with RBCCs (RBCC, AlPcS4 treatment then γ-irradiation 25 Gy, rutin present during γ-irradiation and storage, 7 days) is 40 mM. In the data set with RBCCs (RBCCs, 50 Gy γ-irradiation, 2 mM rutin present during treatment), the “plasma K+” value is 40 mM. Also, the Extracellular potassium result with RBCCs (RBCCs, γ-irradiation, 2 mM rutin) is given as “decreased to control levels”. In addition, in the data set on lymphocytes (PCs, independent of presence or concentration of rutin), the “3H thymidine uptake retained by irradiated lymphocytes” value was 1.5%. Further, the “3H thymidine uptake retained by irradiated lymphocytes” value in the data set on lymphocytes (RBCCs, independent of presence or concentration of rutin (0.5, 1 or 2 mM)) was 1.5%. The rate of aggregation with platelets [7] (50 Gy γ-irradiation, 3 day storage) is 80 % of the control. This compound had a Platelet aggregation in the data set on platelets [7] (γ-irradiation 15-50 Gy, after 1 day) of 95%.

Values taken from US6548242B2, “Process for the sterilization of biological compositions and the product thereby” (priority 1990, dated 2003).
